In patent EP3782997A1, “FUSED PYRIMIDINE COMPOUNDS AND PHARMACEUTICAL COMPOSITIONS THEREOF FOR THE TREATMENT OF FIBROTIC DISEASES” (Galapagos N.V., priority 2019, dated 2021):

Biological target: hENPP2 (Homo sapiens, UniProt Q13822)
Assay: Human ENPP2 (hENPP2) biochemical assay using LPC as substrate
Conditions: 150 µM LPC (palmitoyl 16:0), 37°C for 30 min
Method: The principle of the assay conswasts in quantifying the released choline with an enzymatic method using choline oxidase and peroxidase. Choline oxydation by choline oxydase releases betaine and peroxide. The latter was quantified in presence of HRP that converts the peroxide detection agent TOOS (CAS# 82692-93-1) and 4-aminoantipyrine into quinoneimine dye. The appearance of quinoneimine dye was measured spectrophotometrically at 555 nm and was proportional to the amount of choline released by ENPP2. Inhibition of ENPP2 results in a decrease of the signal.
Compound IC50 values were determined in a hENPP2 (UniProtKB/SwwassProt Sequence ref Q13822) biochemical assay using LPC as substrate.
5 µL of a dilution series of compound, starting from 50 µM highest concentration, 1/3 dilution, was added to the wells. hENPP2 was used at a final concentration of 1 µg/mL or 3 µg/mL (it will be appreciated by the skilled person that the potency read out was independent of the enzyme concentration). The enzyme was diluted in 50 mM Trwas-HCl pH 8.5, 500 mM NaCl, 5 mM KCl, 10 mM CaCl2, 0.1% fatty acid free BSA in a total volume of 10 µL. The reaction was started by the addition of 10 µL of 150 µM LPC (palmitoyl 16:0; Avanti Polar Lipids, Inc., Cat# 855675) diluted in the same buffer as described above and the mixture was incubated at 37°C for 30 min. The reaction was terminated and choline quantified by the addition of a 25 µL of a mixture containing 0.6 U/mL of choline oxidase, 0.6 U/mL of peroxydase, 1.8 mM TOOS, 1.2 mM amino-antipyrine, 20 mM EGTA (stop-developer solution) diluted in the buffer described above. […] was read on an Envision plate reader (PerkinElmer, Inc.) after an incubation of 30 min at room temperature (excitation 555 nm).

Cc1cc(C)cc(Nc2ncc3c(n2)CN(C2CCN(C(=O)c4ccc5[nH]nnc5c4)C2)C3)c1 (stereo not shown) [compound 13, 1H-benzotriazol-5-yl-[3-[2-(3,5-dimethylanilino)-5,7-dihydropyrrolo[3,4-d]pyrimidin-6-yl]pyrrolidin-1-yl]methanone]
IC50: 100 to 500 nM

O=C(c1ccc2[nH]c(=O)oc2c1)N1CC(N2CCc3nc(Nc4cc(Cl)cc(C(F)(F)F)c4)ncc3C2)C1 [compound 14, 6-[3-[2-[3-chloro-5-(trifluoromethyl)anilino]-7,8-dihydro-5H-pyrido[4,3-d]pyrimidin-6-yl]azetidine-1-carbonyl]-3H-1,3-benzoxazol-2-one]
IC50: 0.01 to 100 nM

Cc1cc(Cl)cc(Nc2ncc3c(n2)CCN(C2CN(C(=O)c4ccc5[nH]c(=O)oc5c4)C2)C3)c1 [compound 15, 6-[3-[2-(3-chloro-5-methyl-anilino)-7,8-dihydro-5H-pyrido[4,3-d]pyrimidin-6-yl]azetidine-1-carbonyl]-3H-1,3-benzoxazol-2-one]
IC50: 0.01 to 100 nM

Cc1cc(Cl)cc(Nc2ncc3c(n2)CCN(C2CN(C(=O)c4ccc5[nH]nnc5c4)C2)C3)c1 [compound 16, 1H-benzotriazol-5-yl-[3-[2-(3-chloro-5-methyl-anilino)-7,8-dihydro-5H-pyrido[4,3-d]pyrimidin-6-yl]azetidin-1-yl]methanone]
IC50: 100 to 500 nM

O=C(c1ccc2[nH]c(=O)oc2c1)N1CC(N2Cc3cnc(Nc4cc(Cl)cc(C(F)(F)F)c4)nc3C2)C1 [compound 17, 6-[3-[2-[3-chloro-5-(trifluoromethyl)anilino]-5,7-dihydropyrrolo[3,4-d]pyrimidin-6-yl]azetidine-1-carbonyl]-3H-1,3-benzoxazol-2-one]
IC50: 0.01 to 100 nM

Cc1cc(C)cc(Nc2ncc3c(n2)CN(C2CN(C(=O)c4ccc5[nH]nnc5c4)C2)C3)c1 [compound 18, 1H-benzotriazol-5-yl-[3-[2-(3,5-dimethylanilino)-5,7-dihydropyrrolo[3,4-d]pyrimidin-6-yl]azetidin-1-yl]methanone]
IC50: 0.01 to 100 nM

Cc1cc(C)cc(Nc2ncc3c(n2)CN(C2CN(C(=O)c4ccc5[nH]ncc5c4)C2)C3)c1 [compound 19, [3-[2-(3,5-dimethylanilino)-5,7-dihydropyrrolo[3,4-d]pyrimidin-6-yl]azetidin-1-yl]-(1H-indazol-5-yl)methanone]
IC50: 100 to 500 nM

Cc1cc(C)cc(Nc2ncc3c(n2)CN(C2CN(C(=O)c4cccc(S(N)(=O)=O)c4)C2)C3)c1 [compound 20, 3-[3-[2-(3,5-dimethylanilino)-5,7-dihydropyrrolo[3,4-d]pyrimidin-6-yl]azetidine-1-carbonyl]benzenesulfonamide]
IC50: > 1000 nM

COc1cc(Nc2ncc3c(n2)CN(C2CN(C(=O)c4ccc5[nH]c(=O)oc5c4)C2)C3)cc(OC)c1 [compound 21, 6-[3-[2-(3,5-dimethoxyanilino)-5,7-dihydropyrrolo[3,4-d]pyrimidin-6-yl]azetidine-1-carbonyl]-3H-1,3-benzoxazol-2-one]
IC50: 0.01 to 100 nM

O=C(c1ccc2[nH]nnc2c1)N1CC(N2Cc3cnc(Nc4cc(Cl)cc(C(F)(F)F)c4)nc3C2)C1 [compound 22, 1H-benzotriazol-5-yl-[3-[2-[3-chloro-5-(trifluoromethyl)anilino]-5,7-dihydropyrrolo[3,4-d]pyrimidin-6-yl]azetidin-1-yl]methanone]
IC50: 0.01 to 100 nM

COc1cc(C)cc(Nc2ncc3c(n2)CN(C2CN(C(=O)c4ccc5[nH]nnc5c4)C2)C3)c1 [compound 24, 1H-benzotriazol-5-yl-[3-[2-(3-methoxy-5-methyl-anilino)-5,7-dihydropyrrolo[3,4-d]pyrimidin-6-yl]azetidin-1-yl]methanone]
IC50: 0.01 to 100 nM

Cc1cc(C)cc(Nc2ncc3c(n2)CN(C2CN(C(=O)c4ccc(=O)[nH]c4)C2)C3)c1 [compound 26, 5-[3-[2-(3,5-dimethylanilino) -5,7-dihydropyrrolo[3,4-d]pyrimidin-6-yl]azetidine-1-carbonyl]-1H-pyridin-2-one]
IC50: > 1000 nM

COc1cc(Nc2ncc3c(n2)CN(C2CCN(C(=O)c4ccc5[nH]nnc5c4)CC2)C3)cc(OC)c1 [compound 27, 1H-benzotriazol-5-yl-[4-[2-(3,5-dimethoxyanilino)-5,7-dihydropyrrolo[3,4-d]pyrimidin-6-yl]-1-piperidyl]methanone]
IC50: 100 to 500 nM

Cc1cc(Nc2ncc3c(n2)CN(C2CN(C(=O)c4ccc5[nH]c(=O)oc5c4)C2)C3)cc(C(F)(F)F)c1 [compound 28, 6-[3-[2-[3-methyl-5-(trifluoromethyl)anilino]-5,7-dihydropyrrolo[3,4-d]pyrimidin-6-yl]azetidine-1-carbonyl]-3H-1,3-benzoxazol-2-one]
IC50: 0.01 to 100 nM

Cc1cc(Nc2ncc3c(n2)CN(C2CN(C(=O)c4ccc5nn[nH]c5c4)C2)C3)cc(C(F)(F)F)c1 [compound 29, 3H-benzotriazol-5-yl-[3-[2-[3-methyl-5-(trifluoromethyl)anilino]-5,7-dihydropyrrolo[3,4-d]pyrimidin-6-yl]azetidin-1-yl]methanone]
IC50: 0.01 to 100 nM

O=C(c1ccc2[nH]nnc2c1)N1CC(N2Cc3cnc(Nc4ccc(C(F)(F)F)cc4)nc3C2)C1 [compound 30, 1H-benzotriazol-5-yl-[3-[2-[4-(trifluoromethyl)anilino]-5,7-dihydropyrrolo[3,4-d]pyrimidin-6-yl]azetidin-1-yl]methanone]
IC50: 0.01 to 100 nM

COc1cc(Nc2ncc3c(n2)CN(C2CN(C(=O)c4ccc5[nH]nnc5c4)C2)C3)cc(OC)c1 [compound 31, 1H-benzotriazol-5-yl-[3-[2-(3,5-dimethoxyanilino)-5,7-dihydropyrrolo[3,4-d]pyrimidin-6-yl]azetidin-1-yl]methanone]
IC50: 0.01 to 100 nM

Cc1cc(C)cc(Nc2ncc3c(n2)CN(C2CN(C(=O)c4cc[nH]c(=O)c4)C2)C3)c1 [compound 32, 4-[3-[2-(3,5-dimethylanilino)-5,7-dihydropyrrolo[3,4-d]pyrimidin-6-yl]azetidine-1-carbonyl]-1H-pyridin-2-one]
IC50: > 1000 nM

Cc1cc(C)cc(Nc2ncc3c(n2)CN(C2CCCN(C(=O)c4ccc5[nH]nnc5c4)C2)C3)c1 (stereo not shown) [compound 33, 1H-benzotriazol-5-yl-[3-[2-(3,5-dimethylanilino)-5,7-dihydropyrrolo[3,4-d]pyrimidin-6-yl]-1-piperidyl]methanone]
IC50: > 1000 nM

Cc1cc(C)cc(Nc2ncc3c(n2)CN(C2CCN(C(=O)c4ccc5[nH]c(=O)oc5c4)C(C)C2)C3)c1 (stereo not shown) [compound 35, 6-[4-[2-(3,5-dimethylanilino)-5,7-dihydropyrrolo[3,4-d]pyrimidin-6-yl]-2-methyl-piperidine-1-carbonyl]-3H-1,3-benzoxazol-2-one]
IC50: 0.01 to 100 nM

Cc1cc(C)cc(Nc2ncc3c(n2)CN(C2CCN(C(=O)c4ccc5[nH]nnc5c4)CC2(F)F)C3)c1 (stereo not shown) [compound 37, 1H-benzotriazol-5-yl-[4-[2-(3,5-dimethylanilino)-5,7-dihydropyrrolo[3,4-d]pyrimidin-6-yl]-3,3-difluoro-1-piperidyl]methanone]
IC50: 0.01 to 100 nM

Cc1cc(C)cc(Nc2ncc3c(n2)CN(C2CN(C(=O)c4ccc(S(N)(=O)=O)cc4)C2)C3)c1 [compound 38, 4-[3-[2-(3,5-dimethylanilino)-5,7-dihydropyrrolo[3,4-d]pyrimidin-6-yl]azetidine-1-carbonyl]benzenesulfonamide]
IC50: 100 to 500 nM
